{"source": "patent US20210267977A1", "about": "“C[…] AFTER 5HT2A AGONISTS ADMINISTRATION” (Universitätsspital Basel, priority 2020, published 2021)", "key": {"humans": {"system": "humans", "conditions": "cited from earlier work"}, "healthy subjects [1]": {"system": "healthy subjects", "assay": "Example 3 clinical study: cardiovascular and adverse effects (List of Complaints)", "conditions": "for total of reported complaints on the LC list (mean±SEM): up to 12 hours after LSD", "method": "(§1) Study design: The study used a double-blind, placebo-controlled, random-order 2-period cross-over design with 2 treatment conditions: 1) 100 μg LSD+ketanserin (40 mg) and 2) 100 μg LSD+placebo. Ketanserin or placebo was administered 1 hour after LSD. The washout periods between sessions were at least 10 days. The study was registered at ClinicalTrials.gov (NCT04558294).\n(§2) Participants: Healthy subjects (men and women) were recruited. Participants who were younger than 25 years old were excluded from participating in the study. Additional exclusion criteria were age >65 years, pregnancy (urine pregnancy test at screening and before each test session), personal or family (first-degree relative) history of major psychiatric disorders (assessed by the Semi-structured Clinical Interview for Diagnostic and Statistical Manual of Mental Disorders, 4th edition, Axis I disorders by a trained psychiatrist), the use of medications that may interfere with the study medications (e.g. antidepressants, antipsychotics, sedatives), chronic or acute physical illness (abnormal physical exam, electrocardiogram, or hematological and chemical blood analyses), tobacco smoking (>10 cigarettes/day), lifetime prevalence of illicit drug use >10 times (except for Δ^9-tetrahydrocannabinol), illicit drug use within the last 2 months, and illicit drug use during the study (determined by urine drug tests).\n(§3) Study drugs: LSD (D-lysergic acid diethylamide base, high-performance liquid chromatography purity >99%; Lipomed AG, Arlesheim, Switzerland) was administered as an oral solution in units containing 100 μg LSD in 1 mL of 96% ethanol (Holze et al., 2019). Ketanserin was obtained as the marketed drug (KETENSIN® (Janssen)) and encapsulated with opaque capsules to ensure blinding. Ketanserin placebo consisted of identical opaque capsules filled with mannitol.\n(§4) Study procedures: The study included a screening visit, two 13 hour test sessions (7:00 AM-8:00 PM), and an end-of-study visit. LSD was administered at 8:00 AM. Ketanserin (40 mg) or placebo was administered at 9:00 AM. The outcome measures were repeatedly assessed for 12 hours after LSD administration.\nSubjective drug effects: Subjective effects were assessed repeatedly using visual analog scales (VASs) 0, 0.5, 1, 1.5, 2, 2.5, 3, 3.5, 4, 5, 6, 7, 8, 9, 10, 11, and 12 hours after LSD administration. […] Autonomic, adverse, and endocrine effects: Blood pressure, heart rate, and tympanic body temperature were repeatedly measured 1 hour before and 0, 0.5, 1, 1.5, 2.5, 3, 3.5, 4, 5, 6, 7, 8, 9, 10, 11, and 12 hours after LSD administration as previously described in detail (Hysek et al., 2010). Adverse effects were systematically assessed up to 12 hours after drug administration using the 66-item List of Complaints (Zerssen, 1976)."}, "healthy subjects [2]": {"system": "healthy subjects", "assay": "Example 3 clinical study: subjective drug effects (VAS, 5D-ASC), ketanserin or placebo 1 hour after LSD", "conditions": "for duration of action of LSD: three subjects", "method": "as §1, §2, §3, §4\nSubjective drug effects: Subjective effects were assessed repeatedly using visual analog scales (VASs) 0, 0.5, 1, 1.5, 2, 2.5, 3, 3.5, 4, 5, 6, 7, 8, 9, 10, 11, and 12 hours after LSD administration. The VASs were presented as 100-mm horizontal lines (0-100%), marked from “not at all” on the left to “extremely” on the right. The 5D-ASC scale (Dittrich, 1998; Studerus et al., 2010) was administered 12 hours after LSD administration to retrospectively rate alterations in waking consciousness induced by the drugs. Autonomic, adverse, and endocrine effects: Blood pressure, heart rate, and tympanic body temperature were repeatedly measured 1 hour before and 0, 0.5, 1, 1.5, 2.5, 3, 3.5, 4, 5, 6, 7, 8, 9, 10, 11, and 12 hours after LSD administration as previously described in detail (Hysek et al., 2010). Adverse effects were systematically assessed up to 12 hours after drug administration using the 66-item List of Complaints (Zerssen, 1976)."}, "5HT2A receptor": {"molecular_target": "T1, 5HT2A receptor (Homo sapiens, UniProt P28223)", "T1 construct": "ketanserin (40 mg orally) 1 hour prior to the oral administration of LSD; host or cells: human subjects (in vivo, endogenous receptor)", "T1 sequence (P28223 whole entry)": "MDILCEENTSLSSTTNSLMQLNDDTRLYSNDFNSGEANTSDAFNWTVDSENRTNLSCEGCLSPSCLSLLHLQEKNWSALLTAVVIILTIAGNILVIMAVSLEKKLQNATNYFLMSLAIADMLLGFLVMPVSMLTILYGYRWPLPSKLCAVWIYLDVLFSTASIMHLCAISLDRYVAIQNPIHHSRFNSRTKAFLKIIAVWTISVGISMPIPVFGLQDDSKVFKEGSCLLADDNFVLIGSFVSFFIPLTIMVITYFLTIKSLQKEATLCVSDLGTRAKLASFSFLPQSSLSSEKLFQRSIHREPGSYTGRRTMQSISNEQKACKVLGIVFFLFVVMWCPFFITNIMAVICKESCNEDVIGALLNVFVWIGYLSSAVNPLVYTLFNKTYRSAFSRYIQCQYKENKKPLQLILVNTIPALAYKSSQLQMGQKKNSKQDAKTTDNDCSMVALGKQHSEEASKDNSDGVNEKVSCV", "conditions": "cited from earlier work"}, "healthy subjects [3]": {"system": "healthy subjects", "assay": "Example 2 clinical study: subjective drug effects (VAS, AMRS, 5D-ASC, MEQ), ketanserin before LSD", "type": "in vivo, human", "conditions": "16 subjects", "method": "The study was registered at ClinicalTrials.gov (NCT03321136).\n100 μg LSD/100 μg LSD). […] Placebo consisted of identical opaque capsules filled with mannitol.\nLSD or placebo was administered at 9:00 AM. The outcome measures were repeatedly assessed for 24 hours.\nThe VASs for “concentration”, and “perception of time” were bidirectional (±50%). Marked from “not at all” on the left (−50), to “normal” in the middle (0), to “extremely” on the right (+50) for concentration and “slowed” (−50) and “racing” (+50) for “perception of time”. […] Mystical experiences were assessed using the German version (Liechti et al., 2017) of the 100-item States of Consciousness Questionnaire (SOCQ) (Griffiths et al., 2006) that includes the 43-item and newer 30-item MEQ (MEQ43 (Griffiths et al., 2006) and MEQ30 (Barrett et al., 2015)). The 60-item Adjective Mood Rating Scale (AMRS) (Janke & Debus, 1978) was administered 1 hour before and 3, 6, 9, 12, and 24 hours after drug administration.\nThe criterion for significance was p<0.05."}, "[4]": {"assay": "Example 2 clinical study: plasma LSD pharmacokinetics", "conditions": "ketanserin 40 mg before 200 μg LSD, one-compartment model", "method": "The blood samples were immediately centrifuged, and the plasma was subsequently stored at −80° C. until analysis."}, "healthy subjects [5]": {"system": "healthy subjects", "assay": "Example 2 clinical study: autonomic and adverse effects (blood pressure, heart rate, body temperature, List of Complaints)", "conditions": "ketanserin 40 mg before 200 μg LSD", "excerpt": "The washout periods between sessions were at least 10 days. The study was registered at ClinicalTrials.gov (NCT03321136).\nas §2, with “Participants” for “Participants: Healthy subjects (men and women) were recruited. Participants”, “tests). […]” for “tests).”\nKetanserin (40 mg) or placebo was administered at 8:00 AM. […] The outcome measures were repeatedly assessed for 24 hours.\nAutonomic, adverse, and endocrine effects: Blood pressure, heart rate, and tympanic body temperature were repeatedly measured 1 hour before and 0, 0.5, 1, 1.5, 2.5, 3, 4, 5, 6, 7, 8, 9, 10, 11, 12, 14, 16, and 24 hours after drug administration as previously described in detail (Hysek et al., 2010). Adverse effects were systematically assessed 1 hour before and 12 and 24 hours after drug administration using the 66-item List of Complaints (Zerssen, 1976).\nData analysis: Peak (Emax and/or Emin) or peak change from baseline (ΔEmax) values were determined for repeated measures. The values were then analyzed using repeated-measures analysis of variance (ANOVA), with drug as within-subjects factor, followed by Tukey post hoc comparisons using Statistica 12 software (StatSoft, Tulsa, Okla., USA). […]"}, "[6]": {"conditions": "ketanserin 40 mg before 200 μg LSD, reduced to the level of 25 μg LSD"}, "[7]": {"conditions": "100 μg LSD + ketanserin 40 mg 1 hour after"}, "[8]": {"conditions": "ketanserin 40 mg 1 hour after 100 μg LSD"}}, "note": "Like-named read-outs stand apart in the source and are kept apart here."}
{"smiles": "CCN(CC)C(=O)[C@@H]1C=C2c3cccc4[nH]cc(c34)C[C@H]2N(C)C1", "note": "[LSD, Lysergic acid diethylamide]", "values": [{"measurement": "duration of subjective effects (mean±SD)", "setting": "humans; 100 μg LSD, Holze et al., 2019, range: 5.3-12.8 hour", "value": "8.5 ± 2.0", "unit": "h"}, {"measurement": "duration of LSD effects", "setting": "humans; 100 μg dose, Dolder et al., 2017, range: 5-14 hours", "value": "8.2 ± 2.1", "unit": "h"}, {"measurement": "duration of LSD effects", "setting": "humans; 200 μg dose, Dolder et al., 2017, range: 7-19.5 hours", "value": "11.6 ± 1.7", "unit": "h"}, {"measurement": "total of reported complaints on the LC list (mean±SEM)", "setting": "healthy subjects [1]; 100 μg LSD + placebo", "value": "7±3.6"}, {"measurement": "total 3D-OAV score", "setting": "healthy subjects [2]; 100 μg LSD + placebo", "value": 34, "unit": "%"}, {"measurement": "duration of action of LSD", "setting": "healthy subjects [2]; 100 μg LSD + placebo 1 hour after", "value": 10, "unit": "h"}]}
{"smiles": "O=C(c1ccc(F)cc1)C1CCN(CCn2c(=O)[nH]c3ccccc3c2=O)CC1", "note": "[ketanserin]", "values": [{"measurement": "effect on the LSD experience", "setting": "5HT2A receptor; ketanserin 40 mg orally 1 hour prior to LSD 200 μg, Liechti", "value": "similarly prevented the LSD experience"}, {"measurement": "effect on the LSD experience", "setting": "5HT2A receptor; ketanserin 40 mg orally 1 hour prior to oral LSD 70-100 μg, Preller et al., 2017", "value": "prevent the LSD experience almost completely"}, {"measurement": "LSD response on the AMRS", "setting": "healthy subjects [3]; ketanserin 40 mg 1 hour before 200 μg LSD", "value": "significantly prevented anxiety, introversion and emotional excitation"}, {"measurement": "overall subjective response to high-dose LSD", "setting": "healthy subjects [3]; ketanserin 40 mg 1 hour before 200 μg LSD, most P<0.001", "value": "reduced the subjective response to high-dose LSD approximately to the level of the 25 μg LSD dose"}, {"measurement": "subjective effects on the 5D-ASC Scale", "setting": "healthy subjects [3]; [6]", "value": "significantly and markedly reduced"}, {"measurement": "subjective effects on the MEQ and subscales 'Nadir' and 'Aesthetic experience' (SOCQ)", "setting": "healthy subjects [3]; [6]", "value": "significantly and markedly reduced"}, {"measurement": "total of reported complaints on the LC list (mean±SEM)", "setting": "healthy subjects [1]; 100 μg LSD + ketanserin 40 mg", "value": "8.3±4"}, {"measurement": "cardiovascular effects of LSD (blood pressure, heart rate, body temperature)", "setting": "healthy subjects [1]; ketanserin 40 mg 1 hour after 100 μg LSD compared with placebo", "value": "no relevant effects on the cardiovascular effects of LSD"}, {"measurement": "diastolic blood pressure", "setting": "healthy subjects [1]; ketanserin 40 mg 1 hour after 100 μg LSD, needing further study", "value": "transient decrease in diastolic blood pressure"}, {"measurement": "total 3D-OAV score", "setting": "healthy subjects [2]; [7]", "value": 24, "unit": "%"}, {"measurement": "duration of action of LSD", "setting": "healthy subjects [2]; [7]", "value": 4, "unit": "h"}, {"measurement": "set-in of the ketanserin effect on the subjective response to LSD, time after ketanserin administration", "setting": "healthy subjects [2]; [8]", "value": 1, "unit": "h"}, {"measurement": "time to blockade of the LSD-typical effects", "setting": "healthy subjects [2]; [8]", "value": "within two hours"}, {"measurement": "typical mind altering effects of LSD on VAS (any drug effect, good drug effect, visual, auditory, synaesthetic, sense of time, ego-dissolution)", "setting": "healthy subjects [2]; [8]", "value": "very effectively reduced"}, {"measurement": "reduction of the duration of action of LSD", "setting": "healthy subjects [2]; ketanserin 40 mg 1 hour after 100 μg LSD vs placebo", "value": "approximately 60%"}, {"measurement": "recurrence of the LSD effect", "setting": "healthy subjects [2]; ketanserin 40 mg 1 hour after 100 μg LSD, 12 hours observation", "value": "no recurrence of the LSD effect"}, {"measurement": "nausea induced by LSD (VAS)", "setting": "healthy subjects [2]; ketanserin 40 mg 1 hour after 100 μg LSD, more data needed", "value": "tended to reduce nausea"}, {"measurement": "acute subjective psychedelic response to LSD", "setting": "healthy subjects [2]; ketanserin 40 mg 1 hour after LSD base 100 μg", "value": "markedly shortened and also attenuated"}, {"measurement": "feelings of tiredness (VAS)", "setting": "healthy subjects [2]; ketanserin 40 mg added to 100 μg LSD compared with placebo", "value": "increased feelings of tiredness"}, {"measurement": "subjective feelings of stimulation (VAS)", "setting": "healthy subjects [2]; ketanserin 40 mg after 100 μg LSD compared with LSD alone", "value": "increased subjective feelings of stimulation"}, {"measurement": "subjective effects of LSD on the 5D-ASC Scale", "setting": "healthy subjects [2]; ketanserin 40 mg after 100 μg LSD in comparison with placebo", "value": "reduced the subjective effects of LSD"}, {"measurement": "reduction of the total 3D-OAV score", "setting": "healthy subjects [2]; ketanserin 40 mg after 100 μg LSD vs placebo", "value": "approximately 30%"}, {"measurement": "effect on the PK of 200 μg LSD", "setting": "[4]", "value": "only minimally altered"}, {"measurement": "acute adverse effects of 200 μg LSD (List of Complaints)", "setting": "healthy subjects [5]", "value": "significantly prevented"}, {"measurement": "LSD response on blood pressure", "setting": "healthy subjects [5]; 16 subjects", "value": "transiently reduced the LSD response on blood pressure only up to 6 hours"}, {"measurement": "LSD-induced heart rate response", "setting": "healthy subjects [5]; 16 subjects", "value": "significantly prevented"}]}
